Measured values: US5234934A, “Aminopropanol derivatives, process for their preparation and pharmaceutical compositions comprising the same” (priority 1989, dated 1993)
Where two headings read alike, the source gives them in different places.

How the values were obtained:
[1] = tested on: peristalty of stomach and intestines; assay: effect exerted on the peristalty of stomach and intestines (Stickney et al., carbon suspension); format: in vivo, mouse; details: po., mice; for ED50: Mus musculus, read-out: ED50 (antiperistaltic); for TI (therapeutic index): antiperistaltic
Method: The antiperistaltic effect of the compounds was examined by the method of Stickney et al. on white mice of both sexes, weighing 20 to 25 g. The compounds to be tested were administered per os 60 minutes before the addition of carbon suspension to groups containing 10 mice each. The animals of the control groups were treated at the same time and in the same manner with the carrier only. The mice were killed 10 minutes after the addition of the carbon suspension, and the whole length of the intestines as well as the length of the intestines filled with carbon suspension were measured.

nervus ischiadicus = assay: local analgesic effect (Truant d'Amato's method); format: in vivo; details: for EC50 %: 0.2 ml injected around nervus ischiadicus; for Duration of effect: in a conc. of 0.5%
Method: The tests were carried out according to Truant d'Amato's method. 0.2 ml of test material was injected around the nervus ischiadicus in the middle of femur with a needle of 1 cm length. The criterion of analgesic effect was the lack of the motoric control of foot muscles.
The duration of effect was registered and the 50 percentile effective concentration (EC50) was calculated on the basis of the dose-effect curve. Lidocain was used as comparative material. (Truant, A. P., D'Amato, D.: Acta Chir Scand. 116, 351/1958/)

LD50 po. on rat = details: in vivo
[2] = absorption judged by ED50 per os/ED50 iv; details: in vivo
Text: The compounds of formula I according to the invention can well be absorbed if administered either orally or parenterally.

[3] = acute toxicity test in mice (Litchfield and Wilcoxon); format: in vivo, mouse; details: mouse, in vivo, po., 14 days observation
Method: (§1) The test for acute toxicity was carried out by using 10 white mice (CFLP strain) (both male and female), weighing 18 to 22 g in each dose group. The compounds of the invention were administered orally in a dose of 20 ml/kg.
(§2) The animals were kept in a plastic box on wood chips in a room of room temperature. They could consume tap water and standard mouse feed ad libitum. The toxicity data were determined by the method of Litchfield and Wilcoxon (Litchfield, J. T., Wilcoxon, F. W.: J. Pharmacol. Exp. Ther. 96, 99/1949/).

gastric acid secretion = gastric acid secretion test (Shay); format: in vivo, rat; details: rats
Method: The test was carried out according to Shay's operational method. […] On the day of the test the pylorus of the animals was bound under ether narcosis. The test compounds were administered orally 3 hours before the operation. The animals of the control group were administered with the carrier only. 4 hours after the operation the stomach was removed, the content thereof was centrifuged and the amount of free acid was determined by titration with 0.1N sodium hydroxide.

[4] = tested on: aconitine-induced ECG alterations; assay: animal or person; format: in vivo, rat; details: for ED50 / change in vivo at 4 mg/kg / change in vivo at 100 mg/kg: Rattus norvegicus; for change in vivo at 4 mg/kg / change in vivo at 100 mg/kg: read-out: Effect % (antiarrhythmic)
Method: The test was carried out by using the modified method of Marmo et al. on rats weighing 160 to 200 g. The animals were narcotised by ethyl uretane (1.2 g/kg ip.). Aconitin was administered intravenously in a dose of 75 /ug/kg in the form of a bolus injection. The ECG alterations were monitored in standard II lead by 5 minutes after the administration of aconitine. The observed alterations were classified into classes 0 to 5. The compounds of the invention were administered 2 minutes or 60 minutes before the parenteral or oral administration of aconitine, respectively. […]
class 1: sometimes an extrasystole occurs class 2: each second one is an extrasystole class 3: extrasystoles in groups class 4: each one is an extrasystole class 5: fibrillation, death
(Marmo, E., DiGiacomo, S., Imperatore, A.: Arzeimittel-Forschung 20, 12/1970/)

[5] = tested on: coronary insufficiency caused by vasopressine; assay: antianginal effect on rats (vasopressine coronary insufficiency, Nieschulz); format: in vivo, rat; details: for ED50: Rattus norvegicus, read-out: ED50 (antianginal)
Method: The test was carried out by using rats weighing 180 to 220 g. The animals were narcotised by chloralose urethane (70 to 700 mg/kg ip.). The ECG alterations were registered in standard II lead with the aid of needle electrodes. The antianginal effect was measured with Nieschultz's method. The coronary insufficiency was caused by vasopressine (1 NE/kg, iv.). The size of the T-wave was measured before and after administration of vasopressine in both the control and test groups. The compounds of the invention were administered 2 minutes before the administration of vasopressine. (Nieschulz, O., Popendiker, K., Hoffmann, I.: Arzneimittel-Forschung 5, 680/1955/)

hexobarbital narcosis = assay: narcosis potentiating effect (hexobarbital sleeping time); details: for ED50: Mus musculus, po, read-out: ED50 (narcosis potentiation); for TI (therapeutic index): narcosis potentiation
Method: The narcosis potentiating effect of the compounds of the invention were examined on white mice, with 6 animals in each group. The mice were administered orally with the compounds of the invention, then both the control and the test groups were intravenously added 40 mg/kg of hexobarbital in order to make the mice sleep (Kaergard et al.).

white mice (CFLP strain) = assay: acute toxicity test in mice (Litchfield and Wilcoxon); format: in vivo, mouse; details: po., 14 days observation
Method: as §1, §2

beta-adrenergic = details: background art; cited from earlier work
blood pressure = details: background art; cited from earlier work
level of lipids = details: background art; cited from earlier work
[6] = Rattus norvegicus, dose 200 mg/kg po., read-out: Inhibition of free acid, %
[7] = iv, read-out: ED50 iv. (antiarrhythmic)
[8] = po, read-out: ED50 (antiarrhythmic, per os)
[9] = iv., rats, vasopressine 1 NE/kg iv

With `CC(C)N(CC(O)CO/N=C1\CCCC\C1=C/c1ccccc1)C(C)C` (racemic) [Example 1, R,S-2-(E)-Phenylmethylene-1-(E)-{3-[bis-(1-methylethyl)-amino]-2-hydroxy-propoxyimino}-cyclohexane] the ED50 [1] was ~80 mg/kg, the “TI (therapeutic index)” value [1] was “about 5” and the EC50 % (nervus ischiadicus) was 0.04%. For the same compound, the LD50 (LD50 po. on rat) was 1760 mg/kg, the absorption ratio (ED50 po / ED50 iv) [2] was 20.6 and the absorption ([2]; po) was “much better than that of the cited compound of formula (e)”. The LD50 at 336 h [3] was 400 mg/kg, the inhibition in vivo at 200 mg/kg (gastric acid secretion; [6]) was 70% and the ED50 ([4]; iv, read-out: ED50 iv) was 1.21 mg/kg. For the same compound, the ED50 [4, 7] was 1.21 mg/kg, the change in vivo at 4 mg/kg ([4]; iv) was -89.5% and the ED50 [4, 8] was 27.3 mg/kg. The ED50 ([4]; po, read-out: ED50 per os) was 24.4 mg/kg, the change in vivo at 100 mg/kg ([4]; po) was -100% and the “effect compared to the control compounds regarding the absolute dose” value ([4]; administered orally) was “multiplied effect compared to the control compounds”. The “TI (therapeutic index)” value ([4]; antiarrhythmic, per os, rat) was 64.6 and the “therapeutical activity range, times higher than that of Quinidine” value ([4]; per os, rats, vs Quinidine) was 5.8 times.
`OC(CO/N=C1\CCCC\C1=C/c1ccccc1)CN1CCCCCC1` (racemic) [Example 10, R,S-2-(E)-Phenylmethylene-1-(E)-(3-hexamethylene-imino-2-hydroxypropoxyimino)-cyclohexane] showed an LD50 at 336 h [3] of 900 mg/kg, an ED50 [5, 9] of 1.62 mg/kg and a change in vivo at 4 mg/kg ([4]; iv) of -47%.
In the case of `CN(C)CCCNCC(O)CO/N=C1\CCCC\C1=C/c1ccccc1` (racemic) [Example 11, R,S-2-(E)-Phenylmethylene-1-(E)-[3-(3-dimethylamino-1-propylamino)-2-hydroxy-propoxyimino]-cyclohexane], the ED50 [1] is reported as 100 mg/kg, the “TI (therapeutic index)” value [1] is reported as 10 and the LD50 at 336 h [3] is reported as > 1000 mg/kg. It also gave an inhibition in vivo at 200 mg/kg (gastric acid secretion; [6]) of 62% and an ED50 [5, 9] of 0.93 mg/kg.
In the case of `CN1CCN(CC(O)CO/N=C2\CCCC\C2=C/c2c(Cl)cccc2Cl)CC1` (racemic) [Example 36, R,S-2-(E)-(2,6-Dichlorophenyl-methylene)-1-(E)-[3-(4-methyl-1-piperazinyl)-2-hydroxy-propoxyimino]-cyclohexane], the ED50 [1] is reported as ~100 mg/kg, the “TI (therapeutic index)” value [1] is reported as “about 7” and the ED50 (hexobarbital narcosis) is reported as 14 mg/kg. The “TI (therapeutic index)” value (hexobarbital narcosis; mice, po.) was 50, the LD50 at 336 h [3] was 700 mg/kg and the ED50 [5, 9] was 1.28 mg/kg.
In the case of `CCCNCC(O)CO/N=C1\CCCCC\C1=C/c1ccc(OC)cc1` (racemic) [Example 43, R,S-2-(E)-(4'-Methoxyphenyl-methylene)-1-(E)-(3-propylamino-2-hydroxy-propoxyimino)-cycloheptane], the ED50 (hexobarbital narcosis) is reported as 50 mg/kg, the “TI (therapeutic index)” value (hexobarbital narcosis; mice, po.) is reported as 16 and the LD50 at 336 h [3] is reported as 800 mg/kg. The inhibition in vivo at 160 mg/kg (gastric acid secretion; Rattus norvegicus, dose 160 mg/kg po., read-out: Inhibition of free acid, %) was 32% and the ED50 [5, 9] was ~2 mg/kg.
With `CCN(CC)CC(O)CO/N=C1\CCCCC\C1=C/c1ccc(OC)cc1` (racemic) [Example 44, R,S-2-(E)-(4-Methoxyphenyl-methylene)-1-(E)-(3-diethylamino-2-hydroxy-propoxyimino)-cycloheptane] the LD50 at 336 h [3] was 600 mg/kg and the ED50 [5, 9] was 1.93 mg/kg.
In the case of `CC(C)NCC(O)CO/N=C1\CCCCC1Cc1ccc(Cl)cc1` (racemic) [Example 47, R,S-2-(E)-(4-Chlorophenyl-methyl)-1-(E)-[3-(1-methylethyl-amino)-2-hydroxy-propoxyimino]-cyclohexane], the EC50 % (nervus ischiadicus) is reported as 0.18%, the Duration of effect (nervus ischiadicus) is reported as 93 min and the LD50 at 336 h [3] is reported as 700 mg/kg. For the same compound, the ED50 [5, 9] was 1.29 mg/kg.
In the case of `CCCN(CCC)CC(O)CO/N=C1\CCCCC\C1=C/c1ccc(OC)cc1` (racemic) [Example 51, R,S-2-(E)-(4-Methoxyphenyl-methylene)-1-(E)-(3-dipropylamino-2-hydroxy-propoxyimino)-cycloheptane], the EC50 % (nervus ischiadicus) is reported as 0.28%, the Duration of effect (nervus ischiadicus) is reported as 103 min and the LD50 at 336 h [3] is reported as 100 to 500 mg/kg. It also gave an ED50 [5, 9] of 0.43 mg/kg.
For `OC(CO/N=C1\CCCC\C1=C/c1ccccc1)CN1CC=C(c2ccccc2)CC1` (racemic) [Example 55, R,S-2-(E)-Phenylmethylene-1-(E)-[3-(4-phenyl-1,2,3,6-tetrahydro)-1-pyridinyl]-2-hydroxy-propoxyimino-cyclohexane], the LD50 at 336 h [3] was > 1000 mg/kg and the ED50 ([5]; iv) was 1.77 mg/kg.
For `CC(C)CNCC(O)CON=C1CCCCC1=Cc1cccc(Cl)c1` (stereo not shown) [Example 25, R,S-2-(E)-3-Chlorophenylmethylene-1-(E)-[3-(2-methylpropyl-amino)-2-hydroxy-propoxyimino]-cyclohexane], the LD50 (white mice (CFLP strain)) was 900 mg/kg.
With `CC(C)NCC(O)CO/N=C1\CCCC\C1=C/c1ccc(Cl)cc1` (stereo not shown) [Example 26, R,S-2-(E)-(4-Chlorophenyl-methylene)-1-(E)-[3-(1-methylethylamino)-2'-hydroxy-propoxyimino]-cyclohexane] the EC50 % (nervus ischiadicus) was 0.22%, the Duration of effect (nervus ischiadicus) was 49 min and the “TI (therapeutic index)” value (hexobarbital narcosis; mice, po.) was > 7. The “ED50 (narcosis potentiation)” value (hexobarbital narcosis; po., mice, hexobarbital 40 mg/kg iv) was 140 mg/kg, the LD50 (white mice (CFLP strain)) was “more than 1000 mg/kg” and the “Inhibition of free acid, %” value (gastric acid secretion; dose 100 mg/kg po.) was 66%. For the same compound, the “Inhibition of free acid, %” value (gastric acid secretion; dose 200 mg/kg po.) was 92% and the “ED50 (antianginal)” value [5, 9] was “about 2.0 mg/kg”.
With `CCCNCC(O)CO/N=C1\CCCC\C1=C/c1ccc(Cl)cc1` (stereo not shown) [Example 46, R,S-2-(E)-(4-Chlorophenyl-methylene)-1-(E)-(3-propylamino-2-hydroxypropoxyimino)-cyclohexane] the EC50 % (nervus ischiadicus) was 0.19%, the Duration of effect (nervus ischiadicus) was 81 min and the LD50 (white mice (CFLP strain)) was “more than 1000 mg/kg”.
In the case of `CC(=NOCC(O)CNC(C)(C)C)C1CC1` (stereo not shown) [Falintolol], the beta-adrenergic blocking effect (beta-adrenergic) is given as “exhibits beta-adrenergic blocking activity”.
In the case of `CC(C)(C)NCC(O)CON=C1c2ccccc2-c2ccccc21` (stereo not shown) [IPS-339], the beta-adrenergic blocking effect (beta-adrenergic) is given as “exhibits beta-adrenergic blocking effect”.
For `COc1cccc(C=NOCC(O)CN2CCN(c3ccccc3OC)CC2)c1` (stereo not shown) [Paradoxime], the “blood pressure reducing activity” value (blood pressure) is listed as “shows blood pressure reducing activity”.
For `OC(CON=Cc1ccc(Cl)cc1)CN1CCN(c2ccccc2Cl)CC1` (stereo not shown) [Peraclopone], the “reduction of the level of lipids” value (level of lipids) is listed as “reduces the level of lipids”.
`CC(Cc1ccccc1)NCCC(c1ccccc1)c1ccccc1` (stereo not shown) [Prenilamine, reference compound] gave an ED50 ([5]; iv) of 6.5 mg/kg.
`C=C[C@H]1C[N@@]2CC[C@H]1C[C@@H]2[C@@H](O)c1ccnc2ccc(OC)cc12` [Quinidine, reference compound] gave an LD50 (LD50 po. on rat) of 1130 mg/kg, an ED50 [4, 7] of 9.85 mg/kg and a change in vivo at 4 mg/kg ([4]; iv) of -29%. For the same compound, the ED50 [4, 8] was ~100 mg/kg and the change in vivo at 100 mg/kg ([4]; po) was -52%.
In the case of “R,S-2-(E)-Chlorophenylmethylene-1-(E)-[3-(4-phenyl-1-piperazinyl)-2-hydroxy-propoxyimino]-cyclohexane [Example 24]”, the “TI (therapeutic index)” value [1] is reported as “about 7”, the “ED50 (antiperistaltic)” value [1] is reported as “about 150 mg/kg” and the LD50 (white mice (CFLP strain)) is reported as “more than 1000 mg/kg”.
